From patent US20250171438A1 (Agios Pharmaceuticals, Inc., priority 2022, published 2025)

These compounds were tested against T1, human PAH with the R408W mutation (Homo sapiens, UniProt P00439, R408W) (assay: Cell Based Phenylalanine Flux Assay). Details: A375 cells expressing human R408W PAH; 24 hrs compound incubation; 13C-Tyrosine by LC-MS; average where tested multiple times; read-out: AC50.
T1 construct: expressed in transfected cells
T1 sequence (P00439 1-452 R408W): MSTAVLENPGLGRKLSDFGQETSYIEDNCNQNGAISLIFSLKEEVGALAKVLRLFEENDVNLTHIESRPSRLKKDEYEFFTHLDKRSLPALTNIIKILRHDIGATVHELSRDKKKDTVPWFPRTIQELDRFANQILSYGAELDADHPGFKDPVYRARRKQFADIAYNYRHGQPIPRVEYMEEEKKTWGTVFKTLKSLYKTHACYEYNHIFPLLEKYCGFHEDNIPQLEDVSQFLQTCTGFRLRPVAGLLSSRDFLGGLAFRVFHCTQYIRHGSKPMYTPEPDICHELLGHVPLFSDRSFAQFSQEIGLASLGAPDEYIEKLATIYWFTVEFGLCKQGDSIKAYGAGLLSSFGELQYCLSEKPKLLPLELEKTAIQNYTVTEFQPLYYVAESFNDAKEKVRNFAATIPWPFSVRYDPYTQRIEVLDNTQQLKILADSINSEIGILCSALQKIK
Design: scale not given here

First: Cc1nc(C(C)C)oc1C(=O)N1CCc2[nH]cnc2[C@@H]1c1nc2ccccc2s1 [Example 1398, (R)-(4-(benzo[d]thiazol-2-yl)-6,7-dihydro-1H-imidazo[4,5-c]pyridin-5(4H)-yl)(2-isopropyl-4-methyloxazol-5-yl)methanone]
Second: Cc1nc(C(C)(C)F)oc1C(=O)N1CCc2[nH]cnc2[C@H]1c1nc2ccccc2s1 [Example 1497]
The AC50 of the first is higher: 1 to 5 µM for the first, less than 0.5 µM for the second.

Compared with `O=C(c1nnc(-c2cnn(CC(F)F)c2)o1)N1CCc2[nH]cnc2[C@@H]1c1nc2c(F)cccc2s1` [Example 1881, (R)-(5-(1-(2,2-difluoroethyl)-1H-pyrazol-4-yl)-1,3,4-oxadiazol-2-yl)(4-(4-fluorobenzo[d]thiazol-2-yl)-6,7-dihydro-1H-imidazo[4,5-c]pyridin-5(4H)-yl)methanone], `O=C(c1nnc(-c2ccn(C(F)F)n2)o1)N1CCc2[nH]cnc2[C@H]1c1nc2c(F)cccc2s1` [Example 1888, (S)-(5-(1-(difluoromethyl)-1H-pyrazol-3-yl)-1,3,4-oxadiazol-2-yl)(4-(4-fluorobenzo[d]thiazol-2-yl)-6,7-dihydro-1H-imidazo[4,5-c]pyridin-5(4H)-yl)methanone] is lower in AC50: 1 to 5 µM for the first, less than 0.5 µM for the second.

First: CC(C)(O)c1nc(C#N)c(C(=O)N2CCc3[nH]cnc3[C@@H]2c2nc3ccccc3s2)o1 [Example 1698, (R)-5-(4-(benzo[d]thiazol-2-yl)-4,5,6,7-tetrahydro-1H-imidazo[4,5-c]pyridine-5-carbonyl)-2-(2-hydroxypropan-2-yl)oxazole-4-carbonitrile]
Second: CC(O)(c1nc(C(F)(F)F)c(C(=O)N2CCc3[nH]cnc3[C@@H]2c2nc3ccccc3s2)o1)C1CC1 (single isomer, unassigned) [Example 1564]
The AC50 of the first is higher: greater than 5 µM for the first, less than 0.5 µM for the second.

`O=C(Cc1nccs1)N1CCc2[nH]cnc2[C@H]1c1nc2cccc(Br)c2s1` [Example 1176, (S)-1-(4-(7-bromobenzo[d]thiazol-2-yl)-6,7-dihydro-1H-imidazo[4,5-c]pyridin-5(4H)-yl)-2-(thiazol-2-yl)ethanone] and `O=C(CCc1nccs1)N1CCc2[nH]cnc2[C@H]1c1nc2cccc(Br)c2s1` [Example 1121, (S)-1-(4-(7-bromobenzo[d]thiazol-2-yl)-6,7-dihydro-1H-imidazo[4,5-c]pyridin-5(4H)-yl)-3-(thiazol-2-yl)propan-1-one] fall in the same range of AC50: 0.5 to 1 µM for the first, 0.5 to 1 µM for the second.

Compared with `N#Cc1ccn2ncc(C(=O)N3CCc4[nH]cnc4[C@H]3c3nc4ccccc4s3)c2c1` [Example 1085, (S)-3-(4-(benzo[d]thiazol-2-yl)-4,5,6,7-tetrahydro-1H-imidazo[4,5-c]pyridine-5-carbonyl)pyrazolo[1,5-a]pyridine-5-carbonitrile], `O=C(c1cnn2ccc(Cl)cc12)N1CCc2[nH]cnc2[C@@H]1c1nc2ccccc2s1` [Example 1108, (R)-(4-(benzo[d]thiazol-2-yl)-6,7-dihydro-1H-imidazo[4,5-c]pyridin-5(4H)-yl)(5-chloropyrazolo[1,5-a]pyridin-3-yl)methanone] is higher in AC50: less than 0.5 µM for the first, 1 to 5 µM for the second.

Compared with `O=C(c1cnn2ccc(Cl)cc12)N1CCc2[nH]cnc2[C@@H]1c1nc2cccc(F)c2s1` [Example 1302, (R)-(5-chloropyrazolo[1,5-a]pyridin-3-yl)(4-(7-fluorobenzo[d]thiazol-2-yl)-6,7-dihydro-1H-imidazo[4,5-c]pyridin-5(4H)-yl)methanone], `O=C(c1nc(Cl)cs1)N1CCc2[nH]cnc2[C@@H]1c1nc2cccc(F)c2s1` [Example 1264, (R)-(4-chlorothiazol-2-yl)(4-(7-fluorobenzo[d]thiazol-2-yl)-6,7-dihydro-1H-imidazo[4,5-c]pyridin-5(4H)-yl)methanone] is higher in AC50: less than 0.5 µM for the first, 1 to 5 µM for the second.

Going from `O=C(CCc1nccs1)N1CCc2[nH]cnc2[C@H]1c1nc(C2CC2)cs1` [Example 2147] to `O=C(c1cnc(C2CC2)s1)N1CCc2[nH]cnc2[C@H]1c1nc2ccccc2s1` [Example 1179], the AC50 falls from greater than 5 µM to less than 0.5 µM.

Going from `O=C(c1ccnn1C(F)F)N1CCc2[nH]cnc2[C@H]1c1nc2ccccc2s1` [Example 1817] to `O=C(c1ccn2ncccc12)N1CCc2[nH]cnc2[C@@H]1c1nc2ccccc2s1` [Example 1530, (R)-(4-(benzo[d]thiazol-2-yl)-6,7-dihydro-1H-imidazo[4,5-c]pyridin-5(4H)-yl)(pyrrolo[1,2-b]pyridazin-5-yl)methanone], the AC50 rises from less than 0.5 µM to greater than 5 µM.

`Cc1nc(C2CC2)oc1C(=O)N1CCc2[nH]cnc2[C@H]1c1nc2c(F)cccc2s1` [Example 1527] and `COCCn1nccc1C(=O)N1CCc2[nH]cnc2[C@H]1c1nc2c(F)cccc2s1` [Example 1723, (S)-(4-(4-fluorobenzo[d]thiazol-2-yl)-6,7-dihydro-1H-imidazo[4,5-c]pyridin-5(4H)-yl)(1-(2-methoxyethyl)-1H-pyrazol-5-yl)methanone] cannot be ordered by AC50: less than 0.5 µM for the first, less than 0.5 µM for the second.

`O=C(c1nnc(-c2ncccc2F)o1)N1CCc2[nH]cnc2[C@@H]1c1nc2ccccc2s1` [Example 1709, (R)-(4-(benzo[d]thiazol-2-yl)-6,7-dihydro-1H-imidazo[4,5-c]pyridin-5(4H)-yl)(5-(3-fluoropyridin-2-yl)-1,3,4-oxadiazol-2-yl)methanone] and `Cc1nn(C)cc1-c1nnc(C(=O)N2CCc3[nH]cnc3[C@H]2c2nc3ccccc3s2)o1` [Example 1925] cannot be ordered by AC50: less than 0.5 µM for the first, less than 0.5 µM for the second.

First: Cc1nc(CCCN2CC(F)C2)oc1C(=O)N1CCc2[nH]cnc2[C@@H]1c1nc2ccccc2s1 [Example 1672, (R)-(4-(benzo[d]thiazol-2-yl)-6,7-dihydro-1H-imidazo[4,5-c]pyridin-5(4H)-yl)(2-(3-(3-fluoroazetidin-1-yl)propyl)-4-methyloxazol-5-yl)methanone]
Second: O=C(CC1CC1(F)F)N1CCc2[nH]cnc2[C@H]1c1nc2ccccc2s1 (single isomer, unassigned) [Example 1274]
The AC50 of the first is higher: greater than 5 µM for the first, 0.5 to 1 µM for the second.

`COCc1ccc2c(C(=O)N3CCc4[nH]cnc4[C@@H]3c3nc4ccccc4s3)c(C#N)nn2c1` [Example 1865, (R)-3-(4-(benzo[d]thiazol-2-yl)-4,5,6,7-tetrahydro-1H-imidazo[4,5-c]pyridine-5-carbonyl)-6-(methoxymethyl)pyrazolo[1,5-a]pyridine-2-carbonitrile] and `O=C(c1cnn2cc(F)ccc12)N1CCc2[nH]cnc2[C@@H]1c1nc2cc(F)ccc2s1` [Example 1334, (R)-(4-(5-fluorobenzo[d]thiazol-2-yl)-6,7-dihydro-1H-imidazo[4,5-c]pyridin-5(4H)-yl)(6-fluoropyrazolo[1,5-a]pyridin-3-yl)methanone] cannot be ordered by AC50: greater than 5 µM for the first, greater than 5 µM for the second.

`CC(C)(O)c1ncc(C(=O)N2CC3(CC3)c3[nH]cnc3[C@@H]2c2nc3ccccc3s2)o1` [Example 1678, (R)-(4′-(benzo[d]thiazol-2-yl)spiro[cyclopropane-1,7′-imidazo[4,5-c]pyridin]-5′(1′H,4′H,6′H)-yl)(2-(2-hydroxypropan-2-yl)oxazol-5-yl)methanone] and `O=C(c1cncs1)N1CCc2[nH]cnc2[C@@H]1c1nc2ccc(Br)cc2[nH]1` [Example 948, (R)-(4-(6-bromo-1H-benzo[d]imidazol-2-yl)-6,7-dihydro-1H-imidazo[4,5-c]pyridin-5(4H)-yl)(thiazol-5-yl)methanone] fall in the same range of AC50: 1 to 5 µM for the first, 1 to 5 µM for the second.

Same assay, conditions: A375 cells expressing human R408W PAH; 24 hrs with compound; 13C-Tyrosine by LC-MS; average where tested multiple times

For `NC(=O)c1nc(-c2ccccn2)oc1C(=O)N1CCc2[nH]cnc2C1c1nc2ccccc2s1` (stereo not shown), the AC50 was “E, E”.

Same assay, conditions: A375 cells expressing human R408W PAH; 24 hrs with compound; 13C-Tyrosine by LC-MS; average where tested multiple times; read-out: AC50

Compared with `Cc1ccc2c(C(=O)N3CCc4[nH]cnc4[C@H]3c3nc4ccccc4[nH]3)cnn2c1` [(S)-(4-(1H-benzo[d]imidazol-2-yl)-6,7-dihydro-1H-imidazo[4,5-c]pyridin-5(4H)-yl)(6-methylpyrazolo[1,5-a]pyridin-3-yl)methanone], `Cc1ccc2c(C(=O)N3CCc4[nH]cnc4C3c3nc4ccc(Br)cc4[nH]3)cnn2c1` (stereo not shown) is higher in AC50: 1 to 5 µM for the first, greater than 5 µM for the second.

`O=C(CCc1nc2ccccc2o1)N1CCc2[nH]cnc2C1c1nc2ccccc2[nH]1` (stereo not shown) and `O=C(Cc1cnn2ccccc12)N1CCc2[nH]cnc2[C@H]1c1nc2ccccc2[nH]1` [(S)-1-(4-(1H-benzo[d]imidazol-2-yl)-6,7-dihydro-1H-imidazo[4,5-c]pyridin-5(4H)-yl)-2-(pyrazolo[1,5-a]pyridin-3-yl)ethanone] fall in the same range of AC50: 1 to 5 µM for the first, 1 to 5 µM for the second.

First: Cn1nc(C#N)cc1C(=O)N1CCc2[nH]cnc2C1c1nc2c(F)cccc2s1 (stereo not shown)
Second: Cn1ncc(C(=O)N2CCc3[nH]cnc3C2c2nc3ccccc3s2)n1 (stereo not shown)
The AC50 of the first is lower: 1 to 5 µM for the first, greater than 5 µM for the second.

`Cc1ncsc1C(=O)N1CCc2[nH]cnc2C1c1nc2ccccc2s1` (stereo not shown) and `O=C(c1nc2ccccc2s1)N1CCc2[nH]cnc2C1c1nc2cc(F)ccc2s1` (stereo not shown) fall in the same range of AC50: 1 to 5 µM for the first, 1 to 5 µM for the second.

`O=C(c1cnn2c(Br)cccc12)N1CCc2[nH]cnc2[C@@H]1c1nc2ccccc2[nH]1` (single isomer, unassigned) and `COc1ccc2c(C(=O)N3CCc4[nH]cnc4C3c3nc4ccccc4s3)cnn2c1` (stereo not shown) cannot be ordered by AC50: greater than 5 µM for the first, greater than 5 µM for the second.

First: Cc1nnc(CCC(=O)N2CCc3[nH]cnc3C2c2nc3ccc(Cl)cc3[nH]2)s1 (stereo not shown)
Second: O=C(c1cncs1)N1CCc2[nH]cnc2C1c1nc2ccc(Cl)cc2[nH]1 (stereo not shown)
The AC50 of the first is lower: 1 to 5 µM for the first, greater than 5 µM for the second.

`O=C(c1nnc(-c2ccc(C(F)(F)F)cc2)o1)N1CCc2[nH]cnc2C1c1nc2c(F)cccc2s1` (stereo not shown) and `O=C(c1ncco1)N1CCc2[nH]cnc2C1c1nc2ccc(F)cc2s1` (stereo not shown) fall in the same range of AC50: 1 to 5 µM for the first, 1 to 5 µM for the second.

First: CN(C)CCn1cc(C(=O)N2CCc3[nH]cnc3C2c2nc3ccccc3s2)c(C#N)n1 (stereo not shown)
Second: O=C(c1cnn2cc(Cc3ccccc3)ccc12)N1CCc2[nH]cnc2C1c1nc2ccccc2s1 (stereo not shown)
The AC50 of the first is lower: 1 to 5 µM for the first, greater than 5 µM for the second.
